Results reported in PubChem BioAssay AID1963844 (Molecular Pharmacology Branch, DTP, NCI, 2024).
Values joined by “and” are separate entries in the source; they are usually repeats but may differ in a detail not shown here. Equal values may be shown once.

System: 422866-222-R5-J1-PDC complex spheroid viability
Assay: Anticancer human tumor 422866-222-R5-J1-PDC patient-derived pancreatic adenocarcinoma cell line growth inhibition [POLQ]
Conditions: for viability, T/C: stronger effect = lower value
Method: Multicellular complex tumor spheroid response to Polymerase (POL) inhibitors (novobiocin, ART-558, RP6685) in combination with a variety of drugs and investigational agents in selected tumor cell lines
The POL inhibitors (novobiocin, ART-558, and RP6685) were evaluated both individually and in combination with standard of care and investigational anticancer small molecules within a complex spheroid model of solid tumors. . Complex spheroids include a stromal component modeled by human endothelial cells (HUVEC) and fibroblasts modeled by human mesenchymal stem cells (MSCs). The concentration ranges selected for each drug and investigational agent were based upon clinically achievable concentrations if the clinical Cmax of the agent was known.
Compounds. The drugs and investigational agents: novobiocin (NSC847541), ART-558 (NSC835418), RP-6685 (NSC848927), peposertib (NSC802822), ceralasertib (NSC780249), elimusertib (NSC800525), camonsertib (NSC841442), AZD-1390 (NSC803789), olaparib (NSC753686), talazoparib (NSC767125), rucaparib (NSC756644), sotorasib (NSC818433), MRTX-1133 (NSC836407), SN-38 (NSC673596), topotecan (NSC609699), epotoside (NSC141540), doxorubicin (NSC123127), gemcitabine (NSC613327), 5-fluorouracil (NSC19893), paclitaxel (NSC125973), vemurafenib (NSC761431), MSA-2 (NSC828583), SN-011 (NSC837082), adavosertib (NSC754352), prexasertib (NSC758257), carboplatin (NSC241240) and oxaliplatin (NSC266046), were obtained from the National Cancer Institute (NCI) Developmental Therapeutics Program Chemical Repository (21). The FDA-approved anticancer drug set is available from the Developmental Therapeutics Program at https://dtp.cancer.gov/organization/dscb/obtaining/. […] The stock solutions were prepared in dimethyl sulfoxide (DMSO, Sigma-Aldrich, St. Louis, MO, cat. D2650), except for the platinum compounds which were prepared in saline (Quality Biological, Gaithersburg, MD, cat. 114-055-101), at 800-fold the tested concentration and stored at -70 degrees C prior to their use. All drugs and investigational agents were tested over a range starting from a high concentration at or near the clinical Cmax and decreasing in half-log increments. If the clinical Cmax for an agent had not been determined, the highest concentration tested was 10 microM, except for SN-38, which was tested at a high concentration of 1 microM.
Cell Culture. All cells were maintained in an incubator at 37 degrees C and 5% CO2 with 95% humidity. The PDC lines were cultured according to standard operating procedures established by the NCI PDMR (https://pdmr.cancer.gov). Table 3 of the manuscript, lists the cell lines along with the number of the three cell types plated to form the mct-spheroids and media for tumor cell growth. After thawing, all PDC lines, except 997537-175-T-J1-PDC and 415267-285-R-J2-PDC, were cultured in Matrigel-coated flasks prepared with a working solution of 1X Ham's F-12 nutrient mix, without supplementation (Thermo Fisher Scientific, cat. 11765054), 100 U/mL penicillin-streptomycin (Thermo Fisher Scientific, cat. 15140122), and 2.5% Matrigel (Corning Inc., Corning, NY, cat. 354248) for the first three passages. The two PDC lines 997537-175-T-J1-PDC and 415267-285-R-J2-PDC were cultured on uncoated flasks. The 857933-349-R-J2-PDC line was cultured in 6C/Colon 1B media containing advanced DMEM/F-12 (Thermo Fisher Scientific, cat. 12634028), 10 mM HEPES (Thermo Fisher Scientific, cat. 15630080), 1X GlutaMAX supplement (Thermo Fisher Scientific, cat. 35050061), 0.1 mg/mL primocin (InvivoGen, San Diego, CA, cat. ant-pm-2), 10% defined fetal bovine serum, heat inactivated (HyClone Laboratories Inc., Logan, UT, cat. SH30070.03HI), 50% L-WRN conditioned media (ATCC, cat. CRL-3276), 1.25 mM N-Acetyl-L-cysteine (Sigma-Aldrich, cat. A9165), 10 mM nicotinamide (Sigma-Aldrich, cat. N0636), 1X B-27 supplement (Thermo Fisher Scientific, cat. 17504044), 1X N-2 supplement (Thermo Fisher Scientific, cat. […]
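Also: spheroids exposed to compounds for one week before readout.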
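For viability, T/C in this document: percent of DMSO vehicle wells luminescence so 100% = untreated viability.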

Nc1ccc(C#CCN(C(=O)Cc2ncc(C(F)(F)F)cc2C(F)(F)F)c2ccc(F)cc2)nn1 was tested, and the viability, T/C (compound 0.0316 µM) was 93.7% [middle of 13 runs], the viability, T/C (compound 0.1 µM) was 97.3% [middle of 13 runs] and the viability, T/C (compound 1 µM) was 97.2% [middle of 13 runs]. For the same molecule, the viability, T/C (compound 3.16 µM) was 105% [middle of 13 runs], the viability, T/C (compound 10 µM) was 114% [middle of 13 runs] and the IC50 (compound alone, run of 12/05/2023) was > 10 µM.

For CC(=O)O[C@H]1C(=O)[C@@]2(C)[C@H]([C@H](OC(=O)c3ccccc3)[C@]3(O)C[C@H](OC(=O)[C@H](O)[C@@H](NC(=O)c4ccccc4)c4ccccc4)C(C)=C1C3(C)C)[C@]1(OC(C)=O)CO[C@@H]1C[C@@H]2O, the viability, T/C (compound 0.00949 µM) was 50.9% and 53.8% and 66.3%, the viability, T/C (compound 0.03 µM) was 50.2% and 51.8% and 56.2% and the viability, T/C (compound 0.0949 µM) was 54.2% and 52.1% and 68.6%. The viability, T/C (compound 0.3 µM) was 64.3% and 52.8% and 60.4%, the viability, T/C (compound 0.949 µM) was 53.7% and 57.4% and 68.9% and the viability, T/C (compound 3 µM) was 61.5% and 58.4% and 69.8%. For the same molecule, the IC50 (curve of compound) was > 3 µM.

COc1cc2cc(C(=O)CCC(=O)O)sc2cc1OC was tested, and the viability, T/C (compound 0.0316 µM) was 106% and 85.3% and 94.7%, the viability, T/C (compound 0.1 µM) was 99.5% and 89.1% and 83% and the viability, T/C (compound 0.316 µM) was 107% and 91% and 88%. The viability, T/C (compound 3.16 µM) was 98.6% and 97.3% and 98% and the IC50 (curve of compound) was > 10 µM.

For COc1cc2cc(C(=O)CCC(=O)O)sc2cc1OC + COC1C(OC(N)=O)C(O)C(Oc2ccc3c(O)c(NC(=O)c4ccc(O)c(CC=C(C)C)c4)c(=O)oc3c2C)OC1(C)C, the IC50 (curve of first compound, second compound 0.0316 µM) was > 10 µM, the IC50 (curve of first compound, second compound 0.1 µM) was > 10 µM and the IC50 (curve of first compound, second compound 0.316 µM) was > 10 µM. For the same molecule, the IC50 (curve of first compound, second compound 1 µM) was > 10 µM, the IC50 (curve of first compound, second compound 3.16 µM) was > 10 µM and the IC50 (curve of first compound, second compound 10 µM) was > 10 µM. The viability, T/C (second compound 0.0316 µM, first compound 0.0316 µM) was 102%, the viability, T/C (second compound 0.0316 µM, first compound 0.1 µM) was 104% and the viability, T/C (second compound 0.0316 µM, first compound 0.316 µM) was 87.3%. For the same molecule, the viability, T/C (second compound 0.0316 µM, first compound 1 µM) was 114%, the viability, T/C (second compound 0.0316 µM, first compound 3.16 µM) was 94.2% and the viability, T/C (second compound 0.0316 µM, first compound 10 µM) was 106%. For the same molecule, the viability, T/C (second compound 0.1 µM, first compound 0.0316 µM) was 114%, the viability, T/C (second compound 0.1 µM, first compound 0.1 µM) was 95.8% and the viability, T/C (second compound 0.1 µM, first compound 0.316 µM) was 93.8%. It also gave a viability, T/C (second compound 0.1 µM, first compound 1 µM) of 105%, a viability, T/C (second compound 0.1 µM, first compound 3.16 µM) of 88.1% and a viability, T/C (second compound 0.1 µM, first compound 10 µM) of 102%. For the same molecule, the viability, T/C (second compound 0.316 µM, first compound 0.0316 µM) was 98.8%, the viability, T/C (second compound 0.316 µM, first compound 0.1 µM) was 95% and the viability, T/C (second compound 0.316 µM, first compound 0.316 µM) was 110%. The viability, T/C (second compound 0.316 µM, first compound 1 µM) was 93.4%, the viability, T/C (second compound 0.316 µM, first compound 3.16 µM) was 93.8% and the viability, T/C (second compound 0.316 µM, first compound 10 µM) was 106%. It also gave a viability, T/C (second compound 1 µM, first compound 0.0316 µM) of 104%, a viability, T/C (second compound 1 µM, first compound 0.1 µM) of 96.8% and a viability, T/C (second compound 1 µM, first compound 0.316 µM) of 94.4%. For the same molecule, the viability, T/C (second compound 1 µM, first compound 1 µM) was 102%, the viability, T/C (second compound 1 µM, first compound 3.16 µM) was 92.7% and the viability, T/C (second compound 1 µM, first compound 10 µM) was 115%. It also gave a viability, T/C (second compound 3.16 µM, first compound 0.0316 µM) of 99.1%, a viability, T/C (second compound 3.16 µM, first compound 0.1 µM) of 102% and a viability, T/C (second compound 3.16 µM, first compound 0.316 µM) of 107%. For the same molecule, the viability, T/C (second compound 3.16 µM, first compound 1 µM) was 103%, the viability, T/C (second compound 3.16 µM, first compound 3.16 µM) was 92.5% and the viability, T/C (second compound 3.16 µM, first compound 10 µM) was 134%. The viability, T/C (second compound 10 µM, first compound 0.0316 µM) was 97.2%, the viability, T/C (second compound 10 µM, first compound 0.1 µM) was 104% and the viability, T/C (second compound 10 µM, first compound 0.316 µM) was 105%. The viability, T/C (second compound 10 µM, first compound 1 µM) was 99%, the viability, T/C (second compound 10 µM, first compound 3.16 µM) was 94.8% and the viability, T/C (second compound 10 µM, first compound 10 µM) was 122%.

In the case of Cn1ncnc1[C@H]1c2n[nH]c(=O)c3cc(F)cc(c23)N[C@@H]1c1ccc(F)cc1, the viability, T/C (compound 0.000316 µM) is reported as 105% and 98.6% and 90.6%, the viability, T/C (compound 0.001 µM) is reported as 94.4% and 84.4% and 82.5% and the viability, T/C (compound 0.00316 µM) is reported as 95.8% and 100% and 84.7%. The viability, T/C (compound 0.01 µM) was 102% and 89.2% and 106%, the viability, T/C (compound 0.0316 µM) was 96.2% and 89.7% and 91.1% and the viability, T/C (compound 0.1 µM) was 82.2% and 98.5% and 82.5%. The IC50 (curve of compound) was > 0.1 µM.
